Experimental data from patent US20250248402A1, “HERBICIDAL COMPOSITIONS AND METHODS FOR CONTROLLING WEEDS” (UPL Mauritius Limited, priority 2024, published 2025).

How the values were obtained:
[1] = tested on: common waterhemp, Non-Target Site Resistant "ACR" Population; experiment: Greenhouse dose-response, effective dose on atrazine-resistant waterhemp; format: in vivo, Amaranthus tuberculatus; details: 13 days after treatment, visual scale 0-100
[2] = tested on: common waterhemp, Non-Target Site Resistant "MCR" Population; experiment: as above; format: in vivo, Amaranthus tuberculatus; details: 13 days after treatment, visual scale 0-100

## CCNc1nc(Cl)nc(NC(C)C)n1 [Atrazine (480 g/L FL), Atrazine]
[1]
  ED 20 Estimate: 6.782 g ai/ha
  ED 80 Estimate: 768.664 g ai/ha
[2]
  ED 20 Estimate: 20.856 g ai/ha
  ED 80 Estimate: 793.705 g ai/ha
